Source: patent publication US20220088102A1, “CROTON LECHLERI COMPOSITIONS AND THEIR USE IN THE TREATMENT OF CYSTIC FIBROSIS” (priority 2020, published 2022)

Experiments:
DNA of the cells = details: Chen 1994, cited from earlier work
[1] = In vitro Permeation Test (IVPT), Franz diffusion cell, Strat-M membranes
Text: All reference to skin includes references to epithelial skin and epithelial layer of the lungs, nose, mouth and throat. IVPT is a flux measurement that is common to those skilled in the art to evaluate topical drugs inclusive to topical delivery to the lungs, nose, mouth and throat.

wound healing = details: in vivo in rats, Pieters et al 1995; cited from earlier work

SMILES	effect on cell proliferation (DNA of the cells)	Flux (J) ([1]; component permeating from AB-101 100% Lot 1) [ug/cm^2/hr]	Flux (J) ([1]; component permeating from AB-101 100% Lot X) [ug/cm^2/hr]	wound healing activity (wound healing)	healing effects (DNA of the cells; in the Ecuadorian sap)
Oc1cc(O)c2c(c1)O[C@H](c1cc(O)c(O)c(O)c1)[C@@H](O)C2 [Gallocatechin, gallocatechin]	slightly stimulating to cell proliferation	18.25	4.33	–	–
COc1ccc([C@H]2Oc3c(OC)cc(CCCO)cc3[C@@H]2CO)cc1OC [dimethylcedrusin, 3′,4-0-dimethylcedrusin]	–	–	–	improved wound healing in vivo	showed little healing effects
